From PMC12154426, “TPP-Based Nanovesicles Kill MDR Neuroblastoma Cells and Induce Moderate ROS Increase, While Exerting Low Toxicity Towards Primary Cell Cultures: An In Vitro Study” (International Journal of Molecular Sciences, 2025) come the findings set out here.

In assay [1] the test system is HTLA ER. Put plainly: DCFH assay of ROS (H2O2) production, HTLA ER. It counts as cell-based, human. The text has this: It has been reported that the administration of TPP-based compounds, including TPP-based bola amphiphilic nanovesicles such as BPPB, induce ROS overproduction, thus causing oxidative stress (OS), which has been widely reported to be involved in the anticancer effect of several chemotherapeutic drugs, including etoposide, doxorubicin [38], and cisplatin [39]. […] On the contrary, the role of ROS was scarcely present in PLX-resistant CMM cells exposed to the same concentrations of BPPB [13]. With these considerations, we evaluated ROS levels also in NB cells treated with BPPB, since this experiment would have been particularly helpful to understand whether (i) these nanovesicles’ preparation exerts its cytotoxic action on HTLA 230 and ER cells through ROS production, as in PLX-sensitive CMM cells; or (ii) the resistance acquired by HTLA ER based on high levels of antioxidants, following chronic treatment with etoposide, conferred resistance also to a preparation based on the use of nanovesicles (BPPBs). Moreover, the evaluation of ROS levels can be an indirect method to ascertain and confirm the presence of apoptosis, since as reported, low levels of ROS induce apoptosis and high levels induce necrosis.Therefore, to investigate the pro-oxidant action of BPPB also in HTLA 230 and HTLA ER NB cells, ROS levels were evaluated in both NB cell populations exposed for 24–72 h to increasing concentrations (0.1–2 µM) of BPPB using the DCFH essay (Figure 4). The results were reported as a percentage of cells positive to DCFH normalized for protein content. Raw fluorescence data are, in fact, not applicable since an increase in fluorescence could be due to a high number of cells but also to an increased production of H2O2 induced by the treatments. This is the reason why it is necessary to normalize the fluorescence data to the protein content. Other cellular assays measuring oxidative damage, including lipid peroxidation or protein carbonylation, are likely too complex for low-tier early hazard assessment or hazard screening. Conversely, the cellular DCFH assay is a simpler and widely used alternative, which measures intracellular ROS production by forming a fluorescent product (DCF) upon oxidation by free radicals produced by cells.
The production of H2O2 was evaluated using 2′-7′-dichlorofluorescein-diacetate (DCFH-DA; Merk Life Science S.r.l. Milan, Italy), as previously reported. Briefly, NB cells (10^4 cells/well) were seeded in 96-well plates (Corning) and treated. Then, cells were stained with 2′-7′ di-chloro-fluorescein-diacetate (DCFH-DA; Sigma-Aldrich) and incubated with 90% DMSO for an additional 10 min in the dark. The generated fluorescence intensity was monitored with a Perkin Elmer fluorometer (Perkin Elmer Life and Analytical Sciences, Shelton, WA, USA) at 485/530 nm excitation/emission. Values were normalized to the protein content.

Assay [2] concerns HTLA 230. Put plainly: DAPI and Annexin-V/PI staining (necrosis/apoptosis), HTLA 230. It is filed as cell-based, human. The conditions noted are these: 0.5 µM, 24 h. The text has this:
Although it has been reported that diverse therapeutic approaches to counteract cancer, including chemotherapeutic drugs, gamma irradiation, suicide genes, or immunotherapy, are mediated through the induction of apoptosis, also necrosis, as well as other forms of cell death, that are not classified so far, may be triggered by anticancer therapies. Here, to evaluate if BPPB induced apoptosis or necrosis, both NB cell populations were labelled with Annexin-V-FITC/propidium iodide (PI) and analysed by confocal fluorescence microscopy, as reported in the literature. This is a standard procedure to monitor the progression of apoptosis and the possible presence of necrosis. […]
After the treatment, cells were washed with PBS and stained with the fluorescent DNA dye DAPI (1 µg/mL) for 30 min. After additional washing, the images were immediately acquired in the fluorescence mode using a Nikon AX R confocal microscope equipped with a PLAN APO 20× (Nikon Europe, B.V., Amstelveen, The Netherlands).
Apoptotic and necrotic cells were analysed, as described in Marengo et al.. […] After staining, the images were immediately acquired in fluorescence mode using a Nikon AX R confocal microscope equipped with a PLAN APO 20× (Nikon Europe, B.V., Amstelveen, The Netherlands).

With `c1ccc([P+](CCCCCCCCCCCC[P+](c2ccccc2)(c2ccccc2)c2ccccc2)(c2ccccc2)c2ccccc2)cc1` [BPPB, 1,1-(1,12-dodecanediyl)-bis-[1,1,1]-triphenyl phosphonium di-bromide], in assay [1] (24 h), the “concentration significantly inducing ROS overproduction” value is on record as 1.25 µM and the “concentrations that did not induce significant changes in ROS levels” value was no more than 1 µM. In assay [1] (24 h, normalized for protein content, control = 1), the “highest value of DCFH-positive cells” value is 4.92. Also, the “increase in ROS with respect to the control” value in assay [1] (24 h exposure) is reported as greater than 4 times. Also, in assay [1] (48 h), the “concentrations that did not induce significant changes in ROS levels” value is no more than 1.25 µM. Also, the “highest value of DCFH-positive cells” value in assay [1] (48 h, normalized for protein content, control = 1) worked out at 3.67. Also, in assay [1] (72 h), the “concentrations that did not induce significant changes in ROS levels” value was no more than 0.75 µM and the “maximal DCFH value in HTLA ER lower than in HTLA 230” value was found to be 1.16 times. Moreover, the “maximal value of DCFH-positive cells” value in assay [1] (72 h, normalized for protein content, control = 1) amounted to 4.99. Besides, in assay [2], the “apoptosis (Annexin V-FITC / PI labelling)” value is given as “marked apoptosis” and the “necrosis (DAPI labelling)” value is given as “seemed to induce the necrosis”.
